In paper PMC12406253, “Exploration of the Neuromodulatory Properties of Fyn and GSK-3β Kinases Exploiting 7‑Azaindole-Based Inhibitors” (Journal of Medicinal Chemistry, 2025):

Key:
GSK3β(h) = GSK3β(h) (Homo sapiens, UniProt P49841); experiment: Eurofins KinaseProfiler radiometric kinase assay; conditions: read-out: GSK3β(h) % Residual activity
DRAK1(h) = target: T1, DRAK1(h) (Homo sapiens, UniProt Q9UEE5); experiment: Eurofins KinaseProfiler radiometric kinase assay; format: biochemical; conditions: for remaining activity at 10 µM: read-out: DRAK1(h) % Residual activity
T1 construct: purchased Eurofins KinaseProfiler (Eurofins Cerep)
T1 sequence (Q9UEE5 1-414): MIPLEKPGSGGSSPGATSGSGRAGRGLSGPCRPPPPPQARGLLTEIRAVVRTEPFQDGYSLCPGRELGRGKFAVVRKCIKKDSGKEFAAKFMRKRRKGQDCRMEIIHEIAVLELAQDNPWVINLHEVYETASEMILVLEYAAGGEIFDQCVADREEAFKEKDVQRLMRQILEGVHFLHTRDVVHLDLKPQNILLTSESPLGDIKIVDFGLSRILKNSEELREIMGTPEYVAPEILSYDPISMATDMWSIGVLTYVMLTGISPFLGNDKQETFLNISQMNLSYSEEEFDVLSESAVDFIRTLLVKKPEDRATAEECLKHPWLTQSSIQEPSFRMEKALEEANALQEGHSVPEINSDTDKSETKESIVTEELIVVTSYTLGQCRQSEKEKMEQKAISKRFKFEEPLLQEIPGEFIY

CDK9/cyclin T1(h) = target: T2, CDK9/cyclin T1(h) (Homo sapiens, UniProt P50750); experiment: Eurofins KinaseProfiler radiometric kinase assay; format: biochemical; conditions: for remaining activity at 10 µM: read-out: CDK9/cyclin T1(h) % Residual activity
T2 construct: purchased Eurofins KinaseProfiler (Eurofins Cerep)

[1] = BBB permeability in hCMEC/D3 transwell model; conditions: human
Experimental: To this aim, the immortalized human brain endothelial cell line (hCMEC/D3) was used since it mimics the brain endothelium-restricted permeability and expresses most of the transporters and receptors present in vivo, constituting a valuable in vitro model of the human BBB crossing system.
BBB permeability assay was conducted as described in Albertini et al. The brain microvascular endothelial cells (hCMEC/D3) were seeded at the density of 5 × 10^4 cells per cm^2 in the upper compartment of Transwell filters (polyester, pore size 0.4 μm, 12-well tissue culture transwell; Corning), precoated with rat tail collagen type I (0.1 mg/mL; Roche). They were grown for 7 days up to confluence in Endothelial Cell Growth Medium 2 (Promocell), supplemented with penicillin/streptomycin 100 U/mL, in a humidified, 5% CO2 incubator at 37 °C. Confluent monolayers were washed in prewarmed HBSS buffer, and the selected compounds were added to the apical (AP) side at a concentration of 100 μM. […] Samples (100 μL) were collected from the BL side at different time points (15, 30, 60, and 90 min) and then replaced with the corresponding volume of HBSS buffer. […] The concentration of compounds was determined using a Ultimate 3000 HPLC system (ThermoFisher) with UV–vis detection at the maximum absorption wavelength of each compound except for inulin as determined by a spectrophotometric method using a Tecan Sunrise absorbance microplate reader. […] The permeability coefficient (Papp) was calculated as follows: Papp = (ΔQ/Δt)/(C [donor] × A), where ΔQ/Δt represents the permeation rate (mol/s), C [donor] is the initial compound concentration in the donor compartment at time 0 (mol/cm^3), and A represents the surface area of the filter (1.12 cm^2).

[2] = tested on: neurospheres (NPCs from the subventricular zone); experiment: Neurosphere growth analysis (NPC proliferation); format: cell-based, mice; conditions: 0.1, 1, and 5 μM; 7 days
Experimental: Based on that, we further investigated the neurogenic and differentiation potential of our kinase inhibitors in cell culture of neurospheres, which are floating pools of NPCs coming from the subventricular zone (SVZ) of six-month-old mice. Particularly, we first analyzed the variation, during 7 days, in number and size of neurosphere population with and without treatment.
To investigate the effect of compounds of interest in neurospheres’ growth rate, single spheres were plated in suspension in 96-well plates (5 × 10^3 cells/well) in the presence of compounds (0.1 μM, 1 μM, and 5 μM) in complete DMEM F-12 culture medium. One image/well was acquired every day by using the Sartorius Incucyte Live-Cell Analysis System and evaluated through the Brightfield Spheroid Analysis Software Module. Only aggregates with areas larger than 400 μm^2 were considered for statistical analysis.

FYNα = FYNα (Homo sapiens, UniProt P06241); experiment: Fyn kinetics, ATP competition (Lineweaver–Burk); conditions: 0.05 and 0.3 μM compound; ATP 1.5 to 24 μM
Sequence of FYNα (P06241 whole entry): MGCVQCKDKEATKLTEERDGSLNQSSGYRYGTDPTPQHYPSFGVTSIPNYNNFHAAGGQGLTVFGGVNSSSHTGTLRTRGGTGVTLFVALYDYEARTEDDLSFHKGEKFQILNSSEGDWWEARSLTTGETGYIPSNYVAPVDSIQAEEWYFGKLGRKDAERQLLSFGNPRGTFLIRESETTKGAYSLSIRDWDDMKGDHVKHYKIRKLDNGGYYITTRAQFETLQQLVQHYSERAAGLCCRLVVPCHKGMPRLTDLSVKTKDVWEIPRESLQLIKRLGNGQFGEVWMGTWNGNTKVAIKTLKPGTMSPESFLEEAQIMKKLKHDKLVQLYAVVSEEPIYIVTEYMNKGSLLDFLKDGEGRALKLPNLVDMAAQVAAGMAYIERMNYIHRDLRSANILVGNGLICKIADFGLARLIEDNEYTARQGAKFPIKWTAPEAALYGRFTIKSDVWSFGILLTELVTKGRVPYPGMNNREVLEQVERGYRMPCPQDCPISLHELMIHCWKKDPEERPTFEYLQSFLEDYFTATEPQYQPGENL

T2 sequence (P50750 whole entry): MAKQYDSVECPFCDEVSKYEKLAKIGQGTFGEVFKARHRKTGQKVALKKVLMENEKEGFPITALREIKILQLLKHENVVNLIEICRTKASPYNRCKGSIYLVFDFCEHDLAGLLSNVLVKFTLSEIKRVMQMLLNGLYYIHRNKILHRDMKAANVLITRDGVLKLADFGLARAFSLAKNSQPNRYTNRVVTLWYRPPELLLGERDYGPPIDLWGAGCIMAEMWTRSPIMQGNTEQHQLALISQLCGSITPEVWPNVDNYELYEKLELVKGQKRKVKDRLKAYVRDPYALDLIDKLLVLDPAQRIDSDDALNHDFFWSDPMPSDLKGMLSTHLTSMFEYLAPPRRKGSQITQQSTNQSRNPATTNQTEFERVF
T2 sequence (O60563 whole entry partner): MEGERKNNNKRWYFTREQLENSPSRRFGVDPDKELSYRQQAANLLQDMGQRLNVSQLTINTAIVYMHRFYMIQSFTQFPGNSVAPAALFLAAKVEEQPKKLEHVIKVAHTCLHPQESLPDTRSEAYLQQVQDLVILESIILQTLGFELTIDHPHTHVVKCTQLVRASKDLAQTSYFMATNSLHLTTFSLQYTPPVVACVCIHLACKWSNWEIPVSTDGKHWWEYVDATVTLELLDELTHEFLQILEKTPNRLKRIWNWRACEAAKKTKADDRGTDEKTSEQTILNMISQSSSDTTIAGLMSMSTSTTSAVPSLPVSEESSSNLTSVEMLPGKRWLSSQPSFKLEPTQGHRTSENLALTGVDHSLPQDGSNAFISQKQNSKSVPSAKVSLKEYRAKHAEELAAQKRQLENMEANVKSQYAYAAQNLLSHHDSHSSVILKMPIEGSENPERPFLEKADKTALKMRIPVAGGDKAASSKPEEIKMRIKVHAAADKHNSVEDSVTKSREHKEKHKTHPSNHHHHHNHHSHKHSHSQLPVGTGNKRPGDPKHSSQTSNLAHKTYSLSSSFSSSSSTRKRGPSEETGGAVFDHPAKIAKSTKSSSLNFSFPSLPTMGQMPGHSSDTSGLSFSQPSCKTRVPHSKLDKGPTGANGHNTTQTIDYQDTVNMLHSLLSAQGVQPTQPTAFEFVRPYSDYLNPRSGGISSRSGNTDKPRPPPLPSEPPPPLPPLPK
Sequence of GSK3β(h) (P49841 whole entry): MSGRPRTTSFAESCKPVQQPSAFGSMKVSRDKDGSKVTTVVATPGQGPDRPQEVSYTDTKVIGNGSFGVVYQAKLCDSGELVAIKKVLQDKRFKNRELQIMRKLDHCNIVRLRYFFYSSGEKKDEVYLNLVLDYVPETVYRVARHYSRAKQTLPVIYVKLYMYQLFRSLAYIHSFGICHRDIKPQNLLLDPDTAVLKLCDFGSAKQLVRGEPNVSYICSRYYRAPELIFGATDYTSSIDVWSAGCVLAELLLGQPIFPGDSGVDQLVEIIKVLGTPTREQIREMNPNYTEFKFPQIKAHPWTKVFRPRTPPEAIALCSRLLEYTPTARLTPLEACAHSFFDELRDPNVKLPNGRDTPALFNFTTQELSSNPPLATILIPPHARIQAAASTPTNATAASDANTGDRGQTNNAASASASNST

remaining activity at 10 µM (GSK3β(h)) [%]	inhibition at 10 µM (DRAK1(h)) [%]	remaining activity at 10 µM (DRAK1(h)) [%]	remaining activity at 10 µM (CDK9/cyclin T1(h)) [%]	Papp A→B at 90 min, 100 μM [1] [×10⁻⁶ cm/s]	inhibition at 10 µM (CDK9/cyclin T1(h)) [%]	Structure (SMILES)	Neurosphere number (object count per image), neurogenesis [2]	Mechanism of Fyn inhibition with respect to ATP (FYNα)
58	> 90	9	50	–	–	Br.Cc1sc(NCc2ccccc2)nc1-c1c[nH]c2ncc(Br)cc12 [Compound 41, N-Benzyl-4-(5-bromo-1H-pyrrolo[2,3-b]pyridin-3-yl)-5-methylthiazol-2-amine Hydrobromide]	–	–
–	–	14	5	32 ± 5.38	> 90	Br.Cc1sc(NCc2ccnc(Cl)c2)nc1-c1c[nH]c2ncccc12 [Compound 43, N-((2-Chloropyridin-4-yl)methyl)-5-methyl-4-(1H-pyrrolo[2,3-b]pyridin-3-yl)thiazol-2-amine Hydrobromide]	not effective	competitive inhibition with respect to ATP
